From US20050239784A1 (priority 2002, published 2005)
≈ marks a conversion by molar mass, not a printed value. Like-named read-outs stand apart in the source and are kept apart here.

What was measured:
CDK4 = CDK4 (Homo sapiens, UniProt P11802); assay: biochemical
physchem = conditions: pH 7.4, aqueous buffer, kinetic from dmso stock
A2780 cells = assay: Cytotox survival of A2780 cells after 3 days; format: cell-based; conditions: for IC50: Homo sapiens, A2780, 72 h
Experimental: In an alternative assay, the growth inhibitory effect of the compounds was tested on the ovarian carcinoma cell line A2780 using art known cytotoxicity assays such as LIVE/DEAD (Molecular Probes) MTT.

AKT3 [1] = target: T1, AKT3 (Homo sapiens, UniProt Q9Y243); assay: biochemical
Target sequence in this assay (Q9Y243 whole entry, species assumed): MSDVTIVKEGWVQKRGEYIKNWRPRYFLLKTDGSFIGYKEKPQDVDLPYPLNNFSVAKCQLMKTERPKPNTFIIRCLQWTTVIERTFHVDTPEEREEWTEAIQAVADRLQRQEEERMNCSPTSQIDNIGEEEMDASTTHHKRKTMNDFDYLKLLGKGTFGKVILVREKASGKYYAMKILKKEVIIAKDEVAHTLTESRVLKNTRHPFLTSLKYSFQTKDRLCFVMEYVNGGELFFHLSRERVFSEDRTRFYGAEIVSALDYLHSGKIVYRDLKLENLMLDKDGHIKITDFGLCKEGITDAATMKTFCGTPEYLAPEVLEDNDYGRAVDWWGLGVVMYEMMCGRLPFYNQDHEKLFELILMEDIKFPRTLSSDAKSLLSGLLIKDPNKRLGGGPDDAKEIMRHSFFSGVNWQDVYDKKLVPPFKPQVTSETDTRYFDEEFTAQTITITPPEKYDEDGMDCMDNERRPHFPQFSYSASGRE

CDC25B = target: T2, CDC25B (Homo sapiens, UniProt P30305); assay: biochemical
T2 sequence (P30305 1-580): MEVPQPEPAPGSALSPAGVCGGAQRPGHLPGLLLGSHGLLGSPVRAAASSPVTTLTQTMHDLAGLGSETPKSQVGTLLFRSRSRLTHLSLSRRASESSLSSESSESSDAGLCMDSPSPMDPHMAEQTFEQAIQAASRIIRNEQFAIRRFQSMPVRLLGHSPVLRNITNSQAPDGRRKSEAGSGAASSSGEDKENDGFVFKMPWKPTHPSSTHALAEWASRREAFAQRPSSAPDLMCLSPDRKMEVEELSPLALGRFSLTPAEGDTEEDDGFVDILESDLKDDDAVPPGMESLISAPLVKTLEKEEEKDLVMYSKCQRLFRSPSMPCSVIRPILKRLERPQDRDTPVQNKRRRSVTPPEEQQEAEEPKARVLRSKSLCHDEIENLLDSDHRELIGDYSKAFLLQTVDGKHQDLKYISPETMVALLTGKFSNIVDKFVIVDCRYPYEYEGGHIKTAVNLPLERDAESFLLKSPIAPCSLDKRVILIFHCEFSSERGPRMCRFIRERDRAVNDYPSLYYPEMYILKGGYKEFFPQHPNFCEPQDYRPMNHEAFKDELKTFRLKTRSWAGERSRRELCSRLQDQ

AKT3 [2] = target: T1, AKT3; assay: cell-based
Target sequence in this assay (Q9Y243 whole entry): as the sequence (Q9Y243 whole entry, species assumed) above

[3] = CDK4 SPA (Ex. C.1): pIC50 values
[4] = A2780 cells, 3 days, read-out: Cytotox survival of A2780 cells after 3 days - pIC50 values (converted)
[5] = AKT3 pep. (Ex. C.3): pIC50 values
[6] = read-out: CDK4 SPA (Ex. C.1): pIC50 values (converted)
[7] = read-out: Cytotox survival of A2780 cells after 3 days - pIC50 values, A2780 cells, 3 days (converted)
[8] = read-out: CDC25B WT (Ex. C.5): pIC50 values (converted)
[9] = read-out: AKT cel (Ex. C.6): pIC50 values (converted)
[10] = read-out: AKT3 pep. (Ex. C.3): pIC50 values (converted)
[11] = CDC25B WT (Ex. C.5): pIC50 values
[12] = AKT cel (Ex. C.6): pIC50 values, MDA-MB 231 cells, phosphorylated MAPK read-out

Sequence of CDK4 (P11802 whole entry, species assumed): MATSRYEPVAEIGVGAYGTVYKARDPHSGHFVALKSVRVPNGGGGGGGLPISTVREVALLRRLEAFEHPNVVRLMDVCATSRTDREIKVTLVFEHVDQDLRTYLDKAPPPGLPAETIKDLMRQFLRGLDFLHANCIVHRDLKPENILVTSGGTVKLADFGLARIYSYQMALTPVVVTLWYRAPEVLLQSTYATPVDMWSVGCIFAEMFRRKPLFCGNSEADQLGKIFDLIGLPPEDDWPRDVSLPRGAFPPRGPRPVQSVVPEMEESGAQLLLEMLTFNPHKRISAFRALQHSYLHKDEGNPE
Sequence of CDK4 (P24385 whole entry partner, species assumed): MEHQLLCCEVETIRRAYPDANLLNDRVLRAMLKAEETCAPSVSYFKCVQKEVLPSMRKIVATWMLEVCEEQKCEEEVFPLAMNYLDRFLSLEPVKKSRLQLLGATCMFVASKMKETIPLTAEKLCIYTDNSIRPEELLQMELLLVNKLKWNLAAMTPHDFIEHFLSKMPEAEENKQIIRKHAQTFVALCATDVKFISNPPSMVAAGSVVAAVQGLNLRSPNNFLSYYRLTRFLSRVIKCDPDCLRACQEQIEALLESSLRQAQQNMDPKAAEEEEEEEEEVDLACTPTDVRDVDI

| Structure (SMILES) | IC50 (CDK4; [3]) [nM] | solubility (physchem) [µM] | IC50 (A2780 cells; [4]) [nM] | IC50 (AKT3 [1]; [5]) [nM] | IC50 (CDK4; [6]) [nM] | IC50 (A2780 cells; [7]) [nM] | IC50 (CDC25B; [8]) [nM] | IC50 (AKT3 [2]; [9]) [nM] | IC50 (AKT3 [1]; [10]) [nM] | IC50 (CDC25B; [11]) [nM] | IC50 (AKT3 [2]; [12]) [nM] | Cytotox survival of A2780 cells after 3 days - pIC50 values (A2780 cells; A2780 cells, 3 days) |
| --- | --- | --- | --- | --- | --- | --- | --- | --- | --- | --- | --- | --- |
| CC(C)n1nc(-c2ccc(OCCN3CCOCC3)c(Cl)c2)nc2c(=O)n(C)c(=O)nc1-2 [Compound 74] | 161 | 160 to 1800 (≈ 73.7 to 830 µg/mL) | 190 | 111 |  |  |  |  |  |  |  |  |
| CC(C)n1nc(-c2ccc(OCCN3CCN(S(=O)(=O)N(C)C)CC3)cc2)nc2c(=O)n(C)c(=O)nc1-2 [Compound 79] |  | 160 to 1800 (≈ 85.2 to 959 µg/mL) |  |  | 404 | 513 | 26.2 | ≥ 3000 | 282 |  |  |  |
| Cn1c(=O)nc2n(C3CCNCC3)nc(-c3ccc(CCCN4CCCCC4)cc3)nc-2c1=O [Compound 155] | 72.6 |  |  | 232 |  | 177 |  |  |  | 36.9 | 469 |  |
| CC(C)n1nc(-c2ccc(CNC3CCNCC3)cc2)nc2c(=O)n(C)c(=O)nc1-2 [Compound 98] |  | > 1800 |  |  | 200 | 488 | 58.5 | > 3000 | 194 |  |  |  |
| Cn1c(=O)nc2n(C3CCCC3)nc(-c3ccc(CN4CCNCC4)cc3)nc-2c1=O [Compound 153] |  | > 1800 |  |  | 369 | 181 | 46 | 495 | 335 |  |  |  |
| CC(C)n1nc(-c2ccc(OS(=O)(=O)N(C)C)cc2)nc2c(=O)n(C)c(=O)nc1-2 [Compound 87] | 274 | 160 to 1800 (≈ 67.3 to 757 µg/mL) |  | 410 |  | 198 |  |  |  | 48.3 | > 1000 |  |
| CC(C)n1nc(-c2ccc(CNCCc3cccnc3)cc2)nc2c(=O)n(C)c(=O)nc1-2 [Compound 93] | 193 | > 1800 | 272 | 279 |  |  |  |  |  | 49.1 | > 1000 |  |
| CC(C)n1nc(-c2ccc(OCCN3CCN(C(=O)OC(C)(C)C)CC3)cc2)nc2c(=O)n(C)c(=O)nc1-2 [Compound 80] |  | 160 to 1800 (≈ 84.1 to 946 µg/mL) |  |  | 372 | 390 | 32.4 | > 300 | 395 |  |  |  |
| COCCNCc1ccc(-c2nc3c(=O)n(C)c(=O)nc-3n(C(C)C)n2)cc1 [Compound 100] | 157 | > 1800 | 246 | 178 |  |  |  |  |  | 49.9 | 407 |  |
| CC(C)n1nc(-c2ccc(OCCN3CCCCC3)cc2)nc2c(=O)n(C)c(=O)nc1-2 [Compound 94] |  | > 1800 |  |  | 173 | 163 | 36.4 |  | 165 |  |  |  |
| COc1cc(-c2nc3c(=O)n(C)c(=O)nc-3n(C(C)C)n2)cc(OC)c1OCCN1CCCCC1 [Compound 106] |  | > 1800 |  |  | 142 |  | 33.3 | > 3020 | 117 |  |  | 6.074 |
| COc1cc(-c2nc3c(=O)n(C)c(=O)nc-3n(C(C)C)n2)cc(OC)c1OCCN(C)C1CCNCC1 [Compound 105] |  | > 1800 |  |  | 153 | < 3010 | 35.6 | > 3020 | 138 |  |  |  |
| CC(C)n1nc(-c2ccc(OCCCN3CCCCC3)cc2)nc2c(=O)n(C)c(=O)nc1-2 [Compound 81] |  | > 1800 |  |  | 194 | 132 | 38.9 | > 1000 | 252 |  |  |  |
| CC(C)n1nc(-c2ccc(OCCCN3CCOCC3)cc2)nc2c(=O)n(C)c(=O)nc1-2 [Compound 84] | 586 | > 1800 | 216 | 280 |  |  |  |  |  | 38.3 | > 1000 |  |
| CC(C)n1nc(-c2ccc(CN3CCN(S(N)(=O)=O)CC3)cc2)nc2c(=O)n(C)c(=O)nc1-2 [Compound 102] | 79.8 | > 1800 | 912 | 172 |  |  |  |  |  | 36.5 | > 3020 |  |
| CC(C)n1nc(-c2ccc(OCCN(C)S(=O)(=O)N(C)C)cc2)nc2c(=O)n(C)c(=O)nc1-2 [Compound 95] |  | 160 to 1800 (≈ 76.4 to 860 µg/mL) |  |  | 321 | 481 | 41.4 | > 3000 | 190 |  |  |  |
| COc1cc(-c2nc3c(=O)n(C)c(=O)nc-3n(C(C)C)n2)cc(OC)c1OCCN1CCN(C)CC1 [Compound 85] |  | > 1800 |  |  | 322 | 228 | 48.4 | > 1000 | 345 |  |  |  |
| CC(C)n1nc(-c2ccc(OCCN)cc2)nc2c(=O)n(C)c(=O)nc1-2 [Compound 101] | 230 | > 1800 | 579 | 232 |  |  |  |  |  | 53.5 | 513 |  |
| CC(C)n1nc(-c2ccc(OCCN3CCNCC3)cc2)nc2c(=O)n(C)c(=O)nc1-2 [Compound 82] |  | > 1800 |  |  | 300 | 375 | 50.2 | 216 | 339 |  |  |  |
| CC(C)n1nc(-c2ccc(CNC3CCN(S(=O)(=O)N(C)C)CC3)cc2)nc2c(=O)n(C)c(=O)nc1-2 [Compound 99] |  | > 1800 |  |  | 141 | 120 | 30.3 | 432 | 170 |  |  |  |
| COc1cc(-c2nc3c(=O)n(C)c(=O)nc-3n(C(C)C)n2)cc(OC)c1OS(=O)(=O)N(C)C [Compound 86] |  | 160 to 1800 (≈ 76.9 to 865 µg/mL) |  |  | 272 | 264 | 38.6 | > 1000 | 273 |  |  |  |
| COc1cc(-c2nc3c(=O)n(C)c(=O)nc-3n(C3CCNCC3)n2)ccc1OCCN1CCCCC1 [Compound 152] |  |  |  |  | 187 | 630 | 25.4 | ≥ 3000 | 275 |  |  |  |
| COc1cc(-c2nc3c(=O)n(C)c(=O)nc-3n(C(C)C)n2)cc(OC)c1OCCN1CCCCC1 [Compound 77] |  |  |  |  | 293 |  | 43.3 | > 1000 | 240 |  |  | 6.785 |
| CC(C)n1nc(-c2ccc(OCCNS(=O)(=O)N(C)C)cc2)nc2c(=O)n(C)c(=O)nc1-2 [Compound 109] |  | 160 to 1800 (≈ 74.2 to 834 µg/mL) |  |  | 166 | 594 |  | > 3020 | 155 |  |  |  |
| CC(C)n1nc(-c2ccc(OCCCN3CCCCC3)cc2)nc2c(=O)n(C)c(=O)nc1-2 [Compound 90] |  |  |  |  |  |  | 27.9 |  | 181 |  |  | 6.842 |
